The compounds below were run on T47D cells (assay: Cellular growth inhibition assay for T47D cells, CellTiter-Glo). Settings: 72 hours treatment, CellTiter-Glo 2.0 cell viability.
Format: cell-based, human
Procedure: T47D cells were purchased from American Type Cell Culture (ATCC Cat #HTB-133) and then seeded on poly-D-lysine coated, black clear-bottom 384-well plates at 3000/well in 25 μL Dulbecco's Modified Eagle Medium (DMEM) supplemented with 10% w/w Fetal bovine serum (FBS), 0.2 units/mL recombinant human insulin (Gibco Cat #12585014), and 1% w/w Pen-Strep. Pen-Strep is a commercially available mixture of penicillin G and streptomycin, which is used in mammalian cell culture media to prevent bacterial contamination. Dulbecco's Modified Eagle Medium (DMEM) supplemented with 10% w/w fetal bovine serum (FBS), 0.2 units/mL recombinant human insulin, and 1% w/w Pen-Strep is herein referred to as Treatment Medium. Following seeding of cells in the plates, the plates were spun at 300×g for 30 seconds, then equilibrated to room temperature for 30 minutes, and then deposited in a humidified tissue culture incubator maintained at 37° C. with 5% CO2.
At 24 hours after seeding of the cells, dilutions of test compound were prepared in DMSO and dissolved in Treatment Medium, to achieve a final DMSO concentration of 0.5% w/w, thereby providing the Test Compound Solution. A 25 μL aliquot of the Test Compound Solution was added to cells in the well plates. An equal volume of a solution containing DMSO and Treatment Medium was used as a negative control. Following treatment of cells with Test Compound Solution or said equal volume of a solution containing DMSO and Treatment Medium, the plates were spun at 300×g for 30 seconds, and then left in an incubator for 72 hours.
At the end of the treatment duration, cell viability was quantified with CellTiter-Glo 2.0 reagent (Promega Cat #G9243). For this purpose, plates were equilibrated to room temperature for 30 minutes, and then 25 μL of CellTiter-Glo 2.0 reagent was added to cells in the plate wells. Plates were then agitated on a shaker for two minutes at 500 rpm and subsequently incubated at room temperature for 10 minutes. Following incubation, the plates were spun at 3000×g for 30 seconds, then sealed with an optical adhesive cover, and luminescence readings were measured with an EnVision Plate Reader (Perkin Elmer).
Data was normalized using zero luminescence for baseline. A four-parameter non-linear regression curve fit was applied to dose-response data in GraphPad Prism data analysis software to determine the half-maximal growth inhibitory concentration (GI50) for each test compound.

GI50 | SMILES
500 to 1500 nM | Cc1sc2c(c1C)C(c1ccc(C#CC3CCC(Cc4ncc(C(=O)N[C@H]5C(C)(C)[C@H](Oc6ccc(C#N)c(Cl)c6)C5(C)C)cn4)CC3)cc1)=N[C@@H](Cc1ncco1)c1nnc(C)n1-2 (some centres unmarked) [Compound I-506]
< 500 nM | Cc1sc2c(c1C)C(c1ccc([C@H]3C[C@@H]3CC3CCCN(c4ncc(C(=O)N[C@H]5C(C)(C)[C@H](Oc6ccc(C#N)c(Cl)c6)C5(C)C)cn4)C3)cc1)=NC(Cc1ncco1)c1nnc(C)n1-2 (some centres unmarked) [Compound I-494]
> 3000 nM | Cc1sc2c(c1C)C(c1ccc(N3CC(C4CCC(Cc5ncc(C(=O)N[C@H]6C(C)(C)[C@H](Oc7ccc(C#N)c(Cl)c7)C6(C)C)cn5)CC4)C3)cc1)=N[C@@H](Cc1ncco1)c1nnc(C)n1-2 (some centres unmarked) [Compound I-543]
< 500 nM | Cc1sc2c(c1C)C(c1ccc(N3CC(C4CCCC(Cc5ncc(C(=O)N[C@H]6C(C)(C)[C@H](Oc7ccc(C#N)c(Cl)c7)C6(C)C)cn5)C4)C3)cc1)=N[C@@H](Cc1ncco1)c1nnc(C)n1-2 (some centres unmarked) [Compound I-581]
> 3000 nM | Cc1sc2c(c1C)C(c1ccc(C3CC(CC4CCN(c5ncc(C(=O)N[C@H]6C(C)(C)[C@H](Oc7ccc(C#N)c(Cl)c7)C6(C)C)cn5)CC4)C3)cc1)=NC(C)c1nnc(C)n1-2 (some centres unmarked) [Compound I-511]
< 500 nM | Cc1sc2c(c1C)C(c1ccc(C3CC3C3CC4(CCN(c5cnc(C(=O)N[C@H]6C(C)(C)[C@H](Oc7ccc(C#N)c(Cl)c7)C6(C)C)cn5)CC4)C3)cc1)=NC(Cc1ncco1)c1nnc(C)n1-2 (some centres unmarked) [Compound I-541]
< 500 nM | Cc1sc2c(c1C)C(c1ccc(C3CC(CC4CCN(c5ncc(C(=O)N[C@H]6C(C)(C)[C@H](Oc7ccc(C#N)c(Cl)c7)C6(C)C)cn5)CC4)C3)cc1)=NC(C)c1nnc(C)n1-2 (some centres unmarked) [Compound I-509]
< 500 nM | Cc1sc2c(c1C)C(c1ccc(N3CC(C4CCCC(Cc5ncc(C(=O)N[C@H]6C(C)(C)[C@H](Oc7ccc(C#N)c(Cl)c7)C6(C)C)cn5)C4)C3)cc1)=N[C@@H](Cc1ncco1)c1nnc(C)n1-2 (some centres unmarked) [Compound I-582]

Same assay, conditions: Homo sapiens, T47D, 72 h, 72 hours treatment, CellTiter-Glo 2.0 cell viability

GI50 | SMILES
< 500 nM | Cc1sc2c(c1C)C(c1ccc(N3CC(CC4CN(c5cnc(C(=O)N[C@H]6C(C)(C)[C@H](Oc7ccc(C#N)c(Cl)c7)C6(C)C)cn5)C4)C3)cc1)=N[C@@H](Cc1ncco1)c1nnc(C)n1-2 [Compound I-563]
< 500 nM | Cc1sc2c(c1C)C(c1ccc(N3CC(C4CCN(c5ccc(C(=O)N[C@H]6C(C)(C)[C@H](Oc7ccc(C#N)c(Cl)c7)C6(C)C)cn5)CC4)C3)cc1)=N[C@@H](C)c1nnc(C)n1-2 [Compound I-551]
> 3000 nM | Cc1sc2c(c1C)C(c1ccc([C@@H]3C[C@H]3C3CC4(CCN(c5cnc(C(=O)N[C@H]6C(C)(C)[C@H](Oc7ccc(C#N)c(Cl)c7)C6(C)C)cn5)CC4)C3)cc1)=N[C@@H](Cc1ncco1)c1nnc(C)n1-2 [Compound I-518]
< 500 nM | Cc1sc2c(c1C)C(c1ccc(N3CC(CC4CN(c5ccc(C(=O)N[C@H]6C(C)(C)[C@H](Oc7ccc(C#N)c(Cl)c7)C6(C)C)nc5)C4)C3)cc1)=N[C@@H](C)c1nnc(C)n1-2 [Compound I-515]
< 500 nM | Cc1sc2c(c1C)C(c1ccc(N3CC(CC4CCN(c5ncc(C(=O)N[C@H]6C(C)(C)[C@H](Oc7ccc(C#N)c(Cl)c7)C6(C)C)cn5)CC4)C3)cc1)=N[C@@H](Cc1ncco1)c1nnc(C)n1-2 [Compound I-574]
> 3000 nM | Cc1sc2c(c1C)C(c1ccc(N3CC(CC4CN(c5ccc(C(=O)N[C@H]6C(C)(C)[C@H](Oc7ccc(C#N)c(Cl)c7)C6(C)C)cn5)C4)C3)cc1)=NC1(CC1)c1nnc(C)n1-2 [Compound I-532]
< 500 nM | Cc1sc2c(c1C)C(c1ccc(CC3CC4(CCN(c5ccc(C(=O)N[C@H]6C(C)(C)[C@H](Oc7ccc(C#N)c(Cl)c7)C6(C)C)cn5)CC4)C3)cc1)=NC1(CC1)c1nnc(C)n1-2 [Compound I-507]
> 3000 nM | Cc1sc2c(c1C)C(c1ccc(N3CC(C4CCN(c5ccc(C(=O)N[C@H]6C(C)(C)[C@H](Oc7ccc(C#N)c(Cl)c7)C6(C)C)cn5)CC4)C3)cc1)=NC1(CC1)c1nnc(C)n1-2 [Compound I-534]
> 3000 nM | Cc1sc2c(c1C)C(c1ccc(C3CC3C3CC4(CCN(c5cnc(C(=O)N[C@H]6C(C)(C)[C@H](Oc7ccc(C#N)c(Cl)c7)C6(C)C)cn5)CC4)C3)cc1)=N[C@@H](C)c1nnc(C)n1-2 (some centres unmarked) [Compound I-535]
> 3000 nM | Cc1sc2c(c1C)C(c1ccc(C3CC3C3CC4(CCN(c5ncc(C(=O)N[C@H]6C(C)(C)[C@H](Oc7ccc(C#N)c(Cl)c7)C6(C)C)cn5)CC4)C3)cc1)=N[C@@H](C)c1nnc(C)n1-2 (some centres unmarked) [Compound I-537]
> 3000 nM | Cc1sc2c(c1C)C(c1ccc(N3CC(CC4CN(c5cnc(C(=O)N[C@H]6C(C)(C)[C@H](Oc7ccc(C#N)c(Cl)c7)C6(C)C)cn5)C4)C3)cc1)=NC1(CC1)c1nnc(C)n1-2 [Compound I-527]
< 500 nM | Cc1sc2c(c1C)C(c1ccc(N3CC(C4CCCC(Cc5ncc(C(=O)N[C@H]6C(C)(C)[C@H](Oc7ccc(C#N)c(Cl)c7)C6(C)C)cn5)C4)C3)cc1)=N[C@@H](Cc1ncco1)c1nnc(C)n1-2 (some centres unmarked) [Compound I-579]
> 3000 nM | Cc1sc2c(c1C)C(c1ccc(OC3CC4(C3)CC3(CCN(c5cnc(C(=O)N[C@H]6C(C)(C)[C@H](Oc7ccc(C#N)c(Cl)c7)C6(C)C)cn5)CC3)C4)cc1)=NC1(CC1)c1nnc(C)n1-2 [Compound I-521]
< 500 nM | Cc1sc2c(c1C)C(c1ccc(N3CC(CC4CCN(c5ccc(C(=O)N[C@H]6C(C)(C)[C@H](Oc7ccc(C#N)c(Cl)c7)C6(C)C)cn5)CC4)C3)cc1)=N[C@@H](C)c1nnc(C)n1-2 [Compound I-502]
500 to 1500 nM | Cc1sc2c(c1C)C(c1ccc(CCOC3CCN(c4ncc(C(=O)N[C@H]5C(C)(C)[C@H](Oc6ccc(C#N)c(Cl)c6)C5(C)C)cn4)CC3)cc1)=N[C@@H](C)c1nnc(C)n1-2 [Compound I-501]
1500 to 3000 nM | Cc1sc2c(c1C)C(c1ccc(N3CC(C4CCN(c5ccc(C(=O)N[C@H]6C(C)(C)[C@H](Oc7ccc(C#N)c(Cl)c7)C6(C)C)nc5)CC4)C3)cc1)=NC1(CC1)c1nnc(C)n1-2 [Compound I-533]
< 500 nM | Cc1sc2c(c1C)C(c1ccc(CC3CC4(CCN(c5cnc(C(=O)N[C@H]6C(C)(C)[C@H](Oc7ccc(C#N)c(Cl)c7)C6(C)C)cn5)CC4)C3)cc1)=NC1(CC1)c1nnc(C)n1-2 [Compound I-520]
500 to 1500 nM | Cc1sc2c(c1C)C(c1ccc(N3CC4(CC(Cc5ncc(C(=O)N[C@H]6C(C)(C)[C@H](Oc7ccc(C#N)c(Cl)c7)C6(C)C)cn5)C4)C3)cc1)=N[C@@H](Cc1ncco1)c1nnc(C)n1-2 [Compound I-498]

— US20260062422A1 (Halda Therapeutics OpCo, Inc., priority 2022, published 2026)
